Data published in PMC3889641 (Inflammatory bowel diseases, 2013).
Read-outs that look alike come from different tables or passages of the source.

Experiments:
[1] = system: Smad3 / phospho-Smad3(Ser423/425); experiment: Smad3 phosphorylation; format: in vivo, rat (Sprague-Dawley); details: EtOH treated rats, cilengitide 18 mg/kg/d i.p., 42 d
collagen = format: in vivo, rat (Sprague-Dawley); details: 18 mg/kg/d i.p., 42 d
CD11b = CD11b immunofluorescence; format: in vivo, rat (Sprague-Dawley); details: 42 d
MPO = format: in vivo, rat (Sprague-Dawley); details: TNBS/cilengitide rats, 42 d; TNBS/PBS 6.06 ± 0.30
[2] = system: Th1, Th2, Th17 and IL-1 related cytokines; format: in vivo, rat (Sprague-Dawley)
[3] = system: phospho-Smad3(Ser423/425); experiment: pSmad3; parameters: species or system human; rat; details: legend of Fig. 2C-F; rats 18 mg/kg/d i.p.
[4] = system: cultured hepatic stellate cells; details: ref [42]; cited from earlier work
[5] = system: rat bile duct ligation model of cirrhosis; details: ref [42]; cited from earlier work
αVβ3 integrin = details: RGD mimetic peptides, like cilengitide, ref [43], cited from earlier work
αVβ5 = details: read-out: IC50 for αVβ5; stated in Discussion; no reference or method printed; cited from earlier work
[6] = system: LAP-β1 and αVβ3 integrin association in rat colon muscle; details: 18 mg/kg/d i.p., 42 d
[7] = TNBS/cilengitide rats, 42 d, vs controls

**Q.** Which results are given for cilengitide?
**A.** Smad3(Ser423/425) phosphorylation [1]: did not affect phosphorylation; collagen protein (Sircol assay) (collagen; EtOH/Cilengitide rats, EtOH/PBS 2.5 ± 0.13): 4.5 ± 0.23 ng/mL; collagen protein (Sircol assay) (collagen; TNBS/cilengitide rats, TNBS/PBS 38 ± 1.9): 9.5 ± 0.48 ng/mL; CD11b immunofluorescence (CD11b; EtOH/cilengitide rats, EtOH/PBS 450 ± 23): 585 ± 30 pixels/hpf; CD11b immunofluorescence (CD11b; TNBS/cilengitide rats, TNBS/PBS 550 ± 28): 500 ± 25 pixels/hpf; MPO activity (MPO): 4.49 ± 0.23 ng/µg protein; IFN-γ level [2, 7]: significantly lower than controls; IL-1α level [2, 7]: significantly lower than controls; IL-1β level [2, 7]: significantly lower than controls; IL-6 level [2, 7]: significantly lower than controls; IL-10 level [2, 7]: significantly lower than controls; TNF-α level [2, 7]: significantly lower than controls; levels of many cytokines ([2]; after 42 d of treatment with cilengitide): not altered; GM-CSF level ([2]; cilengitide, chronic TNBS model (Discussion)): increase the levels of GM-CSF; pSmad3(Ser423/425) levels (in words) [3]: inhibited by cilengitide; anti-fibrotic effect in vitro [4]: anti-fibrotic; fibrosis in vivo [5]: fibrosis worsened; αVβ3 integrin function at high concentrations (αVβ3 integrin; high concentrations): inhibition of αVβ3 integrin function at the high concentrations; αVβ3 integrin function at lower concentrations (αVβ3 integrin; lower concentrations): activation of αVβ3 integrin at lower concentrations; IC50 (αVβ5): 37 nM; association of LAP-β1 with integrin β3 ([6]; EtOH/cilengitide rats, EtOH/PBS 17.5 ± 1.0): 20.2 ± 1.2 pixels/hpf; association of LAP-β1 and αVβ3 ([6]; TNBS/cilengitide rats, TNBS/PBS 139 ± 8.0): 22.9 ± 1.3 pixels/hpf
